Results reported in US8486966B2, “9-(pyrazol-3-yl)-9H-purine-2-amine and 3-(pyrazol-3-yl) -3H-imidazo[4,5-B] pyridin-5-amine derivatives and their use for the treatment of cancer” (Astrazeneca AB, priority 2007, dated 2013).

Target: human Trk A kinase (Homo sapiens (Human), UniProt P04629)
Experiment: Trk A kinase Alphascreen assay
Type: biochemical
Settings: 0.838 ng/ml Trk A, 70 μM ATP, 20 minutes, room temperature; read-out: Trk inhibitory activity IC50
Procedure: Trk A kinase activity was determined by measuring the kinase's ability to phosphorylate synthetic tyrosine residues within a generic polypeptide substrate using an Amplified Luminescent Proximity Assay (Alphascreen) technology (PerkinElmer, 549 Albany Street, Boston, Mass.).
To measure Trk A kinase activity, the intracellular domain of a HIS-tagged human Trk A kinase (amino acids 442-796 of Trk A, Swiss-Prot Primary Accession Number P04629) may be expressed in SF9 cells and purified using standard nickel column chromatography. After incubation of the kinase with a biotinylated substrate and adenosine triphosphate (ATP) for 20 minutes at room temperature, the kinase reaction may be stopped by the addition of 30 mM ethylenediaminetetraacetic acid (EDTA). The reaction may be performed in 384 well microtitre plates and the reaction products may be detected with the addition of strepavidin coated Donor Beads and phosphotyrosine-specific antibodies coated Acceptor Beads using the EnVision Multilabel Plate Reader after an overnight incubation at room temperature.

Chain of human Trk A kinase (P04629 442-796): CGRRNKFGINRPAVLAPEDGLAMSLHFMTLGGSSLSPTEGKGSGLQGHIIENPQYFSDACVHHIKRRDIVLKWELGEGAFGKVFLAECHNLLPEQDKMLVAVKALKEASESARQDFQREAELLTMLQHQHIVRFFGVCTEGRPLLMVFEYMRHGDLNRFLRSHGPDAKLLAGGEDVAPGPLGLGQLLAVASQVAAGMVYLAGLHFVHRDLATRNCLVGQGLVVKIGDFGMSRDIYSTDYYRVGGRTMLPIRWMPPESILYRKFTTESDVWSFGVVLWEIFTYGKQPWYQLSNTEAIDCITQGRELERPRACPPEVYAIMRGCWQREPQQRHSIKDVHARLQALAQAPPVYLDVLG

IC50 [nM] | SMILES
4 | CC(C)Oc1cc(-n2cnc3cc(Cl)c(N[C@@H](C)c4ccc(F)cn4)nc32)n[nH]1 [Example 14, 6-Chloro-N-[(1S)-1-(5-fluoropyridin-2-yl)ethyl]-3-(5-isopropoxy-1H-pyrazol-3-yl)-3H-imidazo[4,5-b]pyridin-5-amine]
14 | Cc1cc(-n2cnc3ccc(N[C@@H](C)c4ccc(F)cn4)nc32)n[nH]1 [Example 17, N-[(1S)-1-(5-Fluoropyridin-2-yl)ethyl]-3-(5-methyl-1H-pyrazol-3-yl)-3H-imidazo[4,5-b]pyridin-5-amine]
3 | C[C@H](Nc1ccc2ncn(-c3cc(C4CC4)[nH]n3)c2n1)c1ccc(F)cn1 [Example 2, 3-(5-Cyclopropyl-1H-pyrazol-3-yl)-N-[(1S)-1-(5-fluoropyridin-2-yl)ethyl]-3H-imidazo[4,5-b]pyridin-5-amine]
3 | CC(C)Oc1cc(-n2cnc3cnc(N[C@@H](C)c4ccc(F)cn4)nc32)n[nH]1 [Example 11, N-[(1S)-1-(5-Fluoropyridin-2-yl)ethyl]-9-(5-isopropoxy-1H-pyrazol-3-yl)-9H-purin-2-amine]
3 | CCOc1cc(-n2cnc3ccc(N[C@@H](C)c4ccc(F)cn4)nc32)n[nH]1 [Example 10, 3-(5-Ethoxy-1H-pyrazol-3-yl)-N-[(1S)-1-(5-fluoropyridin-2-yl)ethyl]-3H-imidazo[4,5-b]pyridin-5-amine]
3 | CCOc1cc(-n2cnc3ccc(N[C@@H](C)c4ncc(F)cn4)nc32)n[nH]1 [Example 9, 3-(5-Ethoxy-1H-pyrazol-3-yl)-N-[(1S)-1-(5-fluoropyrimidin-2-yl)ethyl]-3H-imidazo[4,5-b]pyridin-5-amine]
61 | Cc1cc(-n2cnc3ccc(N[C@@H](C)c4ncc(F)cn4)nc32)n[nH]1 [Example 16, N-[(1S)-1-(5-Fluoropyrimidin-2-yl)ethyl]-3-(5-methyl-1H-pyrazol-3-yl)-3H-imidazo[4,5-b]pyridin-5-amine]
12 | C[C@H](Nc1ncc2ncn(-c3cc(C4CC4)[nH]n3)c2n1)c1ncc(F)cn1 [Example 4, 9-(5-Cyclopropyl-1H-pyrazol-3-yl)-N-[(1S)-1-(5-fluoropyrimidin-2-yl)ethyl]-9H-purin-2-amine]
311 | Cc1cc(-n2cnc3cnc(N[C@@H](C)c4ccc(F)cn4)nc32)n[nH]1 [Example 18, N-[(1S)-1-(5-Fluoropyridin-2-yl)ethyl]-9-(5-methyl-1H-pyrazol-3-yl)-9H-purin-2-amine]
475 | Cc1cc(-n2cnc3c(NC4CCOCC4)nc(N[C@@H](C)c4ccc(F)cn4)nc32)n[nH]1 [Example 20, N^2-[(1S)-1-(5-Fluoropyridin-2-yl)ethyl]-9-(5-methyl-1H-pyrazol-3-yl)-N^6-(tetrahydro-2H-pyran-4-yl)-9H-purine-2,6-diamine]
3 | CCOc1cc(-n2cnc3ccc(N[C@@H](CO)c4ccc(F)cn4)nc32)n[nH]1 [Example 8, (2R)-2-{[3-(5-Ethoxy-1H-pyrazol-3-yl)-3H-imidazo[4,5-b]pyridin-5-yl]amino}-2-(5-fluoropyridin-2-yl)ethanol]
5 | C[C@H](Nc1ncc2ncn(-c3cc(C4CC4)[nH]n3)c2n1)c1ccc(F)cn1 [Example 5, 9-(5-Cyclopropyl-1H-pyrazol-3-yl)-N-[(1S)-1-(5-fluoropyridin-2-yl)ethyl]-9H-purin-2-amine]
3 | CC(C)Oc1cc(-n2cnc3ccc(N[C@@H](C)c4ccc(F)cn4)nc32)n[nH]1 [Example 1, N-[(1S)-1-(5-fluoropyridin-2-yl)ethyl]-3-(5-isopropoxy-1H-pyrazol-3-yl)-3H-imidazo[4,5-b]pyridin-5-amine]
3 | CCOc1cc(-n2cnc3ccc(N[C@@H](CC)c4ccc(F)cn4)nc32)n[nH]1 [Example 23, 3-(5-Ethoxy-1H-pyrazol-3-yl)-N-[(1S)-1-(5-fluoropyridin-2-yl)propyl]-3H-imidazo[4,5-b]pyridin-5-amine]
3 | CC(C)Oc1cc(-n2cnc3cnc(N[C@@H](C)c4ncc(F)cn4)nc32)n[nH]1 [Example 12, N-[(1S)-1-(5-Fluoropyrimidin-2-yl)ethyl]-9-(5-isopropoxy-1H-pyrazol-3-yl)-9H-purin-2-amine]
3 | CC(C)Oc1cc(-n2cnc3ccc(N[C@@H](C)c4ncc(F)cn4)nc32)n[nH]1 [Example 6, N-[(1S)-1-(5-Fluoropyrimidin-2-yl)ethyl]-3-(5-isopropoxy-1H-pyrazol-3-yl)-3H-imidazo[4,5-b]pyridin-5-amine]
6 | CC[C@H](Nc1ccc2ncn(-c3cc(OC(C)C)[nH]n3)c2n1)c1ccc(F)cn1 [Example 13, N-[(1S)-1-(5-Fluoropyridin-2-yl)propyl]-3-(5-isopropoxy-1H-pyrazol-3-yl)-3H-imidazo[4,5-b]pyridin-5-amine]
3 | CC(C)Oc1cc(-n2cnc3ccc(N[C@@H](CO)c4ccc(F)cn4)nc32)n[nH]1 [Example 7, (2R)-2-(5-Fluoropyridin-2-yl)-2-{[3-(5-isopropoxy-1H-pyrazol-3-yl)-3H-imidazo[4,5-b]pyridin-5-yl]amino}ethanol]
3810 | Cc1cc(-n2cnc3cc(F)c(N[C@@H](C)c4ncc(F)cn4)nc32)n[nH]1 [Example 15, 6-Fluoro-N-[(1S)-1-(5-fluoropyrimidin-2-yl)ethyl]-3-(5-methyl-1H-pyrazol-3-yl)-3H-imidazo[4,5-b]pyridin-5-amine]
96 | COc1nc(N[C@@H](C)c2ccc(F)cn2)nc2c1ncn2-c1cc(C)[nH]n1 [Example 21, N-[(1S)-1-(5-Fluoropyridin-2-yl)ethyl]-6-methoxy-9-(5-methyl-1H-pyrazol-3-yl)-9H-purin-2-amine]
7250 | Cc1cc(-n2cnc3c(C(=O)N4CCOCC4)nc(N[C@@H](C)c4ncc(F)cn4)nc32)n[nH]1 [Example 19, N-[(1S)-1-(5-Fluoropyrimidin-2-yl)ethyl]-9-(5-methyl-1H-pyrazol-3-yl)-6-(morpholin-4-ylcarbonyl)-9H-purin-2-amine]
773 | Cc1cc(-n2cnc3c(N4CCOCC4)nc(N[C@@H](C)c4ccc(F)cn4)nc32)n[nH]1 [Example 22, N-[(1S)-1-(5-Fluoropyridin-2-yl)ethyl]-9-(5-methyl-1H-pyrazol-3-yl)-6-morpholin-4-yl-9H-purin-2-amine]

Target: human JAK2 (Homo sapiens (Human), UniProt O60674)
Sequence (O60674 808-1132 limits assumed): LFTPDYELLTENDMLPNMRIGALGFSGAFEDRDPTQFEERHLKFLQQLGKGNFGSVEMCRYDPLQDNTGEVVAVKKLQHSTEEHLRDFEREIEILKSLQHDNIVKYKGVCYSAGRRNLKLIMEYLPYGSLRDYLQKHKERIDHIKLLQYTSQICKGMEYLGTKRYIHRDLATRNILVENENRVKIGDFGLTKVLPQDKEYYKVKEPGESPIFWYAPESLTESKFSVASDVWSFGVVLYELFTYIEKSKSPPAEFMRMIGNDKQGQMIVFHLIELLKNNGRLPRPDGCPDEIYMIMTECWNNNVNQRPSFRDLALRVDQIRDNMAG
Experiment: JAK2 kinase Alphascreen assay
Type: biochemical
Settings: 150 pM JAK2 enzyme, 15 μM ATP, 60 minutes, room temperature; read-out: JAK inhibitory activity IC50
Procedure: JAK2 kinase activity was determined by measuring the kinase's ability to phosphorylate synthetic tyrosine residues within a generic polypeptide substrate using an Amplified Luminescent Proximity Assay (Alphascreen) technology (PerkinElmer, 549 Albany Street, Boston, Mass.).
To measure JAK2 kinase activity, a commercially available purified enzyme may be used. The enzyme may be a C-terminal His6-tagged, recombinant, human JAK2, amino acids 808-end, (Genbank Accession number NM 004972) expressed by baculovirus in Sf21 cells (Upstate Biotechnology MA). After incubation of the kinase with a biotinylated substrate and adenosine triphosphate (ATP) for 60 minutes at room temperature, the kinase reaction may be stopped by the addition of 30 mM ethylenediaminetetraacetic acid (EDTA). The reaction may be performed in 384 well microtitre plates and the reaction products may be detected with the addition of streptavidin coated Donor Beads and phosphotyrosine-specific antibodies coated Acceptor Beads using the EnVision Multilabel Plate Reader after an overnight incubation at room temperature.

IC50 [nM] | SMILES
3 | Cc1cc(-n2cnc3ccc(N[C@@H](C)c4ccc(F)cn4)nc32)n[nH]1 [Example 17, N-[(1S)-1-(5-Fluoropyridin-2-yl)ethyl]-3-(5-methyl-1H-pyrazol-3-yl)-3H-imidazo[4,5-b]pyridin-5-amine]
